From US11840531B2, “CDK8/19 inhibitors” (JOINT STOCK COMPANY “BIOCAD”, priority 2018, dated 2023)

Assays:
[1] = Permeability through Caco-2 cell monolayer; assay type: in vitro ADME; settings: human; for Papp A→B at 2 h, 10 μM: Caco-2, A→B, pH 6.5/7.4, 2 hour incubation; for efflux ratio at 2 h, 10 μM: Caco-2, Papp B-A/Papp A-B
Protocol: Estimation of permeability through Caco-2 cell monolayer enables assessment of the ability of the substances to penetrate through biological membranes by means of both active and passive transport.
Intestinal epithelial cells Caco-2 were grown on filter inserts (pore size 0.4 jam, BD Falcon with High Density) for 21 days; monolayer integrity was then checked using Lucifer Yellow (Sigma-Aldrich, USA) according to the standard protocol. In A→B transfer (“intestinal lumen”-“blood stream” transfer), solutions of the test substances in buffer, pH 6.5 (HBSS, 10 mM HEPES, 15 mM glucose) at a concentration of 10 μM were added to the upper chamber; whereas the lower chamber was filled with buffer, pH 7.4 (HBSS, 10 mM HEPES, 15 mM Glucose, 1% BSA). In B→A transfer (“blood stream”-“intestinal lumen” transfer), the upper chamber was filled with buffer, pH 6.5, whereas the solutions of the test substances in buffer, pH 7.4, at a concentration of 10 μM were added to the lower chamber. A highly permeable substance propranolol was used as a control.
After 2 hour incubation at 37° C. under an atmosphere containing 5% CO2, the amounts of the test substances in the upper and lower chambers were measured by HPLC using an Agilent1200 HPLC system (Agilent, USA), proteins were preliminarily precipitated with acetonitrile. Chromatographic analysis was performed in a gradient elution regime with a flow rate of 1 mL/min. The peak areas corresponding to the compounds were detected on chromatograms. Based on the peak areas of a compound in the calibration standards, concentration of the compound in the initial solution and in the samples from upper chamber wells and lower chamber wells was measured.
Cellular permeability coefficient Papp was calculated by the formula: Papp=(Ca(t)*Va)/(Cd(0)*t*Area), where Papp is the effective permeability constant, m/s V is the volume of solution (0.8 ml in A→B test, 0.2 ml in B→A test), ml Area is the membrane surface area (0.33 cm^2), cm^2 t is the time of incubation (7200 sec), sec Cd(0) is the initial solution concentration, μM Ca(t) is the concentration of the solution after 2 hours (the concentration in the sample from the well of the lower chamber in A→B test; the concentration in the sample from the well of the top chamber in B→A test), μM
The value was calculated by the following formula: efflux=Papp B-A/Papp A-B, where Pape A-B-direct A→B test permeability value Papp B-A-reverse B→A test permeability value

[2] = target: CDK8/Cyclin C (Homo sapiens (Human), UniProt P49336); experiment: LanthaScreen binding to recombinant CDK8/Cyclin C; settings: TR-FRET, Tracer 236 10 nM, CDK8/Cyclin C 5 nM
Chain of CDK8/Cyclin C (P49336 whole entry): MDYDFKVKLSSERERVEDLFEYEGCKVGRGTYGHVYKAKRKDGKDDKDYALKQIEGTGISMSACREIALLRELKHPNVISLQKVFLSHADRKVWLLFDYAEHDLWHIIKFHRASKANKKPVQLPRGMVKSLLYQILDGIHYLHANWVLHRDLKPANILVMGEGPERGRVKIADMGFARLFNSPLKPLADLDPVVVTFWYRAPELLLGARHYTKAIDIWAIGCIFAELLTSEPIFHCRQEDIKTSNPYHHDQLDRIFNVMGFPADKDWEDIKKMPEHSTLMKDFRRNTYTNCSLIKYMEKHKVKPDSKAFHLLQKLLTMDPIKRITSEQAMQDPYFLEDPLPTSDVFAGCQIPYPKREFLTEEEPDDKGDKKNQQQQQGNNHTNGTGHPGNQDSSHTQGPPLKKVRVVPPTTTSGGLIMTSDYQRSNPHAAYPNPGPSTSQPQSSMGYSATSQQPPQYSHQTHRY
Chain of CDK8/Cyclin C (P24863 whole entry partner): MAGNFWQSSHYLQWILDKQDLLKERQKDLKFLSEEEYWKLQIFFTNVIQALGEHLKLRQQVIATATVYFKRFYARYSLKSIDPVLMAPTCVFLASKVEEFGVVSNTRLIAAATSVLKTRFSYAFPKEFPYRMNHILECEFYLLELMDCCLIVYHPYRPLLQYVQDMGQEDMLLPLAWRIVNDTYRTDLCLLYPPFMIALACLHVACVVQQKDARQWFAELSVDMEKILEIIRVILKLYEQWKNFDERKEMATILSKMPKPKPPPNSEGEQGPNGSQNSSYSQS
Protocol: Capability of compounds of the present invention to bind to CDK8 protein was detected using LanthaScreen (ThermoFisher) assay. We detected FRET signal proportional to the amount of CDK8-bound fluorescently-labeled ligand (Tracer 236) that competes with inhibitor for ATP binding site. We carried out the measurements in a 15 μl reaction volume using a 384-well plate (Corning, #CLS4513). Enzyme CDK8/Cyclin C (ThermoFisher, #PR7261B) was mixed with antibodies Anti-His-tag-Biotin (ThermoFisher, #PV6090), Streptavidin-Eu (ThermoFisher, #PV6025), the resulting mixture was added to plate wells (5 MKπ/well). Final concentrations of substances were as follows: CDK8/Cyclin C—5 nM, Streptavidin-Eu—3 nM, Anti-His-tag-Biotin—3 nM. Staurosporine (S4400, Sigma) was used as a reference inhibitor, and 0.1% solution of dimethyl sulphoxide (DMSO) in reaction buffer was used as a blank, the reaction buffer comprised 250 mM HEPES (pH 7.5), 50 mM MgCl2, 5 mM EGTA, and 0.05% Brij-35.
The inhibitors and controls in question were added to corresponding wells (5 μl/well). The plate was incubated at room temperature for 20 minutes. After incubating, 5 μl/well of tracer solution Alexa Fluor-647 (Kinase Tracer 236, ThermoFisher, #PV5592)) was added to the wells. Final concentration of tracer was 10 nM. Reaction buffer, instead of tracer solution, was used as a negative control. The plate was incubated for 40 minutes at 25° C., TR-FRET signal was then measured according to the manufacturer's guidelines on SPARK20 plate reader (Tecan, Switzerland), and the value was converted to the amount of kinase-bound tracer. IC50 values were calculated using SparkControl Magellan 1.2 software (Tecan, Switzerland) approximating experimental points by four-parameter logistic model with the optimization by Levenberg-Marquardt (Table 5).

[3] = system: MV4-11 cells; experiment: Antiproliferative activity, MV4-11 cells (AlamarBlue); assay type: cell-based; settings: Homo sapiens, 120 h incubation, read-out: MV-4-11 IC50
Protocol: Antiproliferative activity of CDK8 inhibitors according to the present invention was measured in a cell-based test on continuous cell cultures MV4-11 (biphenotypic myelomonocytic leukemia, ATCC® CRL-9591™), KG-1 (acute myeloid leukemia, ATCC® CCL-246™) using a vital stain AlamarBlue (ThermoFisher, #DAL1100). The cells were grown in RPMI-1640 (PanEco, #C330p) medium with addition of 10% FBS (Gibco, #16140-071); washed and resuspended in culture medium with 10% FBS (Gibco, #16140-071) in 96-well culture plates (Corning, #3599) with ≈10×10^3 cells in […] of medium per well. The compounds in question were dissolved in DMSO and diluted with a medium with 10% FBS (Gibco, #16140-071) to a final concentration ranging from 0 to 100 μM. […] of diluted compounds were then added to each well (final DMSO concentration was less than 1%) and incubated under 5% CO2 atmosphere at 37° C. for 120 h. After incubating, 15 μL/well of AlamarBlue (ThermoFisher, #DAL1100) reagent was added, contents of plates were mixed in an orbital shaker (Biosan, Latvia) and further incubated for 3-5 h at 37° C. under 5% CO2 atmosphere. Number of living cells was estimated using a microplate spectrophotometer (Tecan Infinite M200Pro, Switzerland) measuring fluorescent signal at the excitation wavelength (λEx) of 540 nm and emission wavelength (λEm) of 590 nm.
IC50 values were calculated using Magellan 7.2 software (Tecan, Switzerland) approximating experimental points by four-parameter logistic model with the optimization by Levenberg-Marquardt (Table 6).

[4] = General cytotoxicity on HepG2 cells; assay type: cell-based; settings: human, 72 h incubation
Protocol: The CC50 values were determined in the test for General cytotoxicity On HepG2 cells (hepatocellular carcinoma, ATCC® HB-8065™). Cells per well were seeded in 96-well plates (Corning, #3599) at a concentration ≈20×10^3 cells in 100 μL of medium and incubated for 72 h with added compounds within the range of concentrations of 200 to 0.78 μM. Cell viability was assessed using the above method.

| SMILES | Papp A→B at 2 h, 10 μM [1] [×10⁻⁶ cm/s] | efflux ratio at 2 h, 10 μM [1] | IC50 [2] [nM] | IC50 [3] [nM] | CC50 at 72 h [4] [nM] |
| --- | --- | --- | --- | --- | --- |
| COCCn1cc(-c2ccc(-c3cnc(N)c4ncc(C(=O)NCC5CC5)cc34)cc2)cn1 [Compound 3.45, 8-amino-N-(cyclopropylmethyl)-5-(4-(1-(2-methoxyethyl)-1H-pyrazole-4-yl)phenyl)-1,7-naphthyridine-3-carboxamide] | 34.5 | 0.37 | 1.63 | 3.4 | 17400 |
| CN(C)C(=O)Cn1cc(-c2ccc(-c3cnc(N)c4ncc(C(=O)N5CCC5)cc34)cc2)cn1 [Compound 3.52, 2-(4-(4-(8-amino-3-(azetidine-1-carbonyl)-1,7-naphthyridine-5-yl)phenyl)-1H-pyrazole-1-yl)-N,N-dimethylacetamide] | 18.7 | 1.66 | 0.96 | 0.9 | > 100000 |
| COCCn1cc(-c2ccc(-c3cnc(N)c4ncc(C(=O)NC5CC5)cc34)cc2)cn1 [Compound 3.48] | 36.2 | 0.64 | 1.1 | 3.9 | 31800 |
